Entries after “also recorded” stand apart in the source; their conditions may differ. Where two headings read alike, the source gives them in different places. Values belong to the compound of their own block, whether it stands above or below them.
Key:
[1] = Particle and agglomerate size by polarized light microscopy in silicone oil; type: physicochemical
Description: The particle size of the solid product of this invention can be evaluated in silicone oil using polarized light microscopy. In some embodiments, Polymorph A enriched valomaciclovir has particle size range from about 10 to about 300 microns as measured using this system.
Polarized light microscopy was used to evaluate the particle size range of the recrystallized samples in silicone oil. The particle size range is reported in Table 4 along with the powder flow data.
A Zeiss Universal microscope configured with a polarized visible light source and polarizable analyzer was used to evaluate the optical properties of the samples. Specimens were typically mounted on a microscope slide with a drop of immersion oil and a cover glass. Magnification was typically 250×. Observations of particle/crystal size and shape were recorded. The presence of birefringence was also noted.

[2] = Powder flow (Carr Index, tapped compressibility); type: physicochemical
Description: The flow characteristics of the solid products of this invention can be measured by the Carr index [Pharmaceutical Preformulation and Formulation, A practical guide from candidate selection to commercial dosage form, Mark Gibson, Ed.; Interpharm Press, 2002; pages 386-7.) By subjecting a powder to mechanical forces, resistance to powder flow can be observed. The increase in bulk density (compressibility) of a powder subjected to tapping can be used to determine the Carr index. In some embodiments, the Polymorph A enriched valomaciclovir has a Carr index value range from about 35 to about 50.
By subjecting a powder to mechanical forces, resistance to powder flow can be observed. The increase in bulk density (compressibility) of a powder subjected to tapping can be used to determine the Carr index. This index was measured for each of the four recrystallized batches and tabulated below.
Powder flow characteristics were compared using the Carr Index. By subjecting a powder to mechanical forces, resistance to powder flow can be observed. The increase in bulk density (compressibility) of a powder subjected to tapping can be used to determine the Carr index. A summary of Carr indices and qualitative flow properties are summarized below in Table 13.
Batches were sieved to <1000 microns before testing. This was necessary to remove any clumps in the samples.

[3] = Powder flow (Carr Index, tapped compressibility); type: physicochemical; conditions: visual observation
[4] = Polymorph screening study, summary of forms; type: physicochemical; conditions: Table 12 summary
Method: A polymorph screening study was performed on valomaciclovir active pharmaceutical ingredient. The screen entailed recrystallizing the material using solvent recrystallization, recrystallization from the melt, annealing experiments, and slurry experiments. Overall, the API was recrystallized under more than 100 different crystal growth conditions and analyzed using powder x-ray diffraction. A chemometric treatment of the x-ray data was used to categorize the samples into different groups. These groups were studied using thermal, optical, spectroscopic and other tools to elucidate which groups represent unique solid state forms of the API.
The raw diffraction data generated from the polymorph screening experiments (solvent recrystallization, recrystallization from the melt, annealing, non-competitive slurries) were initially categorized into 8 different groups using a chemometric treatment. Analyses of these different groups were used to perform additional experiments (e.g. DSC, TGA, HSM, NMR, etc.) to refine the groups identified by the chemometric treatment.

[5] = Competitive and non-competitive slurry experiments in ethanol (energy relationships); type: physicochemical
Method: Competitive slurry experiments were performed using mixtures (normally 50:50) of the forms in ethanol and agitating at approximately 25° C. for several days. Noncompetitive slurries were performed by agitating excess solids of one form in ethanol at room temperature. […] In both the competitive and noncompetitive slurry experiments, the solids were vacuum filtered and analyzed by XRD. The XRD patterns are used to determine if the undissolved solids had transformed into a different polymorphic form. In one case, a different polymorphic form emerged that was different than either of the two forms initially present. This indicates both original forms were metastable to the final form isolated.

[6] = Water solubility / lipophilicity of the API; type: physicochemical
[7] = human, multiple dosing, total daily doses of up to 6.0 g; cited from earlier work
zoster = conditions: suspension, 250, 500 and 750 mg BID for 7 days, zoster patients, acyclovir control; cited from earlier work
HSV-2 = conditions: cited from earlier work
Epstein-Barr virus (EBV) = conditions: cited from earlier work
HSV-I = conditions: cited from earlier work
[8] = tested on: human herpesvirus-6 (HHV-6); conditions: cited from earlier work
[9] = tested on: human varicella zoster virus (VZV); conditions: cited from earlier work
[10] = Table 2, earlier batches, no unit in table (microns)
[11] = Table 2, earlier valomaciclovir batches, sieved to <1000 microns

Typical Particle Size Range ([1]; Table 4, recrystallized samples, in silicone oil, no unit in table, listed as 52772-2-7): 20-50
Carr Index ([2]; Table 4, recrystallized samples (ethanol or SDA 3C), listed as 52772-2-7): 53
Structure (SMILES): CCCCCCCCCCCCCCCCCC(=O)OCC(CCOC(=O)C(N)C(C)C)Cn1cnc2c(=O)[nH]c(N)nc21 (stereo not shown) [Batch 52772-2-7]

Handleability and powder flow [3]: poor handleability and poor powder flow
Agglomerate Size [1, 10]: 200
Typical Particle Size Range [1, 10]: 5-20
Flowability (in words) [2]: extremely poor flowability
Carr Index [2, 11]: 64
Structure (SMILES): CCCCCCCCCCCCCCCCCC(=O)OC[C@H](CCOC(=O)[C@@H](N)C(C)C)Cn1cnc2c(=O)[nH]c(N)nc21 [Batch 146756]

Description (stability class of the polymorphic form) [4]: Thermodynamically
Flowability (in words) ([2]; listed as Polymorph A): more flowable
Flowability (in words) ([2]; listed as Polymorph A enriched valomaciclovir): good flow characteristics
Relative solubility of polymorphic forms (in words) ([5]; inferred from slurry conversion / enantiotropic relationship): less soluble
Structure (SMILES): CCCCCCCCCCCCCCCCCC(=O)OC[C@@H](CCn1cnc2c(=O)[nH]c(N)nc21)COC(=O)[C@@H](N)C(C)C [Form A]
Thermodynamic stability (in words) ([5]; from slurry experiments and thermal behaviour): most stable polymorphic form; also recorded: more thermodynamically stable than the B polymorphs; also recorded: thermodynamically stable form
Thermodynamic stability (in words) ([5]; from slurry experiments and thermal behaviour, listed as Polymorph A): thermodynamically the most stable polymorph of valomaciclovir

Lipophilicity (in words) [6]: fairly lipophilic
Solubility in water (in words) ([6]; water): practically insoluble in water
Structure (SMILES): CCCCCCCCCCCCCCCCCC(=O)OC[C@H](CCOC(=O)[C@@H](N)C(C)C)Cn1cnc2c(=O)[nH]c(N)nc21 [valomaciclovir, L-valine, (3R)-3-[(2-amino-1,6-dihydro-6-oxo-9H-purin-9-yl)methyl]-4-[(1-oxooctadecyl)oxy]butyl ester]
Safety and tolerability [7]: safe and well tolerated
Zoster lesion healing (zoster): proof-of-concept for zoster lesion healing

Description (stability class of the polymorphic form) [4]: Metastable Polymorph
Structure (SMILES): CCCCCCCCCCCCCCCCCC(=O)OCC(CCn1cnc2c(=O)[nH]c(N)nc21)COC(=O)C(N)C(C)C (stereo not shown) [Form B4]

Agglomerate Size [1, 10]: 100
Typical Particle Size Range [1, 10]: 5-40
Carr Index [2, 11]: 48
Structure (SMILES): CCCCCCCCCCCCCCCCCC(=O)OC[C@@H](CCn1cnc2c(=O)[nH]c(N)nc21)COC(=O)[C@@H](N)C(C)C [Batch 12-03-018]

Typical Particle Size Range ([1]; Table 4, recrystallized samples, in silicone oil, no unit in table, listed as 52772-3-17): 10-30
Carr Index ([2]; Table 4, recrystallized samples (ethanol or SDA 3C), listed as 52772-3-17): 56
Structure (SMILES): CCCCCCCCCCCCCCCCCC(=O)OCC(CCOC(=O)C(N)C(C)C)Cn1cnc2c(=O)[nH]c(N)nc21 (stereo not shown) [Batch 52772-3-17]

Typical Particle Size Range ([1]; Table 4, recrystallized samples, in silicone oil, no unit in table, listed as 52772-8-10): 150-300
Carr Index ([2]; Table 4, recrystallized samples (ethanol or SDA 3C), listed as 52772-8-10): 38
Structure (SMILES): CCCCCCCCCCCCCCCCCC(=O)OC[C@H](CCOC(=O)[C@@H](N)C(C)C)Cn1cnc2c(=O)[nH]c(N)nc21 [Batch 52772-8-10]

Description (stability class of the polymorphic form) [4]: Metastable Polymorph
Structure (SMILES): CCCCCCCCCCCCCCCCCC(=O)OCC(CCn1cnc2c(=O)[nH]c(N)nc21)COC(=O)C(N)C(C)C (stereo not shown) [Form B3]

Typical Particle Size Range ([1]; Table 4, recrystallized samples, in silicone oil, no unit in table, listed as 52772-5-8): 35-50
Carr Index ([2]; Table 4, recrystallized samples (ethanol or SDA 3C), listed as 52772-5-8): 44
Structure (SMILES): CCCCCCCCCCCCCCCCCC(=O)OC[C@H](CCOC(=O)[C@@H](N)C(C)C)Cn1cnc2c(=O)[nH]c(N)nc21 [Batch 52772-5-8]

Description (stability class of the polymorphic form) [4]: Metastable Polymorph
Structure (SMILES): CCCCCCCCCCCCCCCCCC(=O)OCC(CCOC(=O)C(N)C(C)C)Cn1cnc2c(=O)[nH]c(N)nc21 (stereo not shown) [Form B2]

Relative solubility of polymorphic forms (in words) [5]: more soluble
Structure (SMILES): CCCCCCCCCCCCCCCCCC(=O)OCC(CCn1cnc2c(=O)[nH]c(N)nc21)COC(=O)C(N)C(C)C (stereo not shown) [Form H]
Thermodynamic stability (in words) [5]: less thermodynamically stable than the B polymorphs

Structure (SMILES): Nc1nc2c(ncn2C[C@H](CO)CCO)c(=O)[nH]1 [Form H2G]
Antiviral activity (in words) (HSV-2): potent activity
Antiviral activity (in words) (Epstein-Barr virus (EBV)): potent activity
Antiviral activity (in words) (HSV-I): potent activity
Antiviral activity (in words) [8]: potent activity
Antiviral activity (in words) [9]: potent activity

Description (stability class of the polymorphic form) [4]: Metastable Polymorph
Structure (SMILES): CCCCCCCCCCCCCCCCCC(=O)OCC(CCn1cnc2c(=O)[nH]c(N)nc21)COC(=O)C(N)C(C)C (stereo not shown) [Form B1]

Reference: US9492456B2, “Valomaciclovir polymorphs” (EPIPHANY BIOSCIENCES, INC., priority 2007, dated 2016)
